In the test the test system is lymphocytes isolated from Balb/C mice. Nature of the test: lymphocyte cell proliferation assay. The format is cell-based. Particulars: LPS at 1 μg/ml (table prints concentration n/a). On the procedure:
The effects of the ginseng extracts produced during these studies, on cell proliferation of lymphocytes isolated from Balb/C mice were assessed by the methods disclosed in Chapters 2 and 3 in Current Protocols in Immunology, (Coligan et al., Eds, 2007, John Wiley & Sons). A first positive control was lipopolysaccharide (LPS) at a concentration of 1 μg/ml. LPS (Prod. L4641) was supplied by Sigma-Aldrich Canada (Oakville, ON, Canada). A commercially available poly-furanosyl-pyranosyl-saccharide-rich ginseng extract, Cold-FX® (Cold-FX is a registered trademark of CV Technologies Inc., Edmonton, Alberta, Canada), was obtained from a local supermarket, and was used for comparison as a second positive control. The effects of the positive controls and the ginseng extracts produced by the three studies described herein on cell proliferation are shown in Table 1. […]
The bioactivity of the dried ginseng extract produced with the pilot scale process disclosed herein was assessed using the assay, related methods, positive and negative controls as described in Example 1.
The biological activity of the dried ginseng extracts produced from alcohol-washed dried ginseng meal during the first study of this example was assessed using the assay and methods described in Example 1, and the results compared to the positive control #2 described in Example 1.

Take “lipopolysaccharide [Positive control #1 (LPS)]”: the “Optical Density (lymphocyte cell proliferation)” value was 0.361.

Values taken from patent US8092842B2, “Extraction of phytochemicals by enzymatic hydrolysis” (Pos Pilot Plant Corporation, priority 2007, dated 2012).
